We go through 15 compounds from ChEMBL document CHEMBL3808371, “Design, synthesis and biological evaluation of diaziridinyl quinone isoxazole hybrids” (Eur J Med Chem, 2016).

As a reminder, the IC50 is the concentration at which inhibition is half-maximal. One may read the MIC as the least concentration at which growth counts as inhibited. A low value points to greater potency. Usually MBC stands for the smallest concentration meeting the test's criterion for killing. Read a high MBC as less potent killing.

Converted amounts (≈) assume the structure as drawn. Some results are limits rather than exact numbers.

The subject of test [1] is A549. The experiment in a line: Cytotoxicity against human A549 cells after 72 hrs by XTT assay. It is filed as functional, cell-based. Particulars: A549, 72 h.
The nature of test [2]: Cytotoxicity against human PC3 cells after 72 hrs by XTT assay. Particulars: PC-3, 72 h. Type of test: functional, cell-based. (In general: Formazan colour is commonly taken as a measure of viable cells.)
Test [3] concerns Staphylococcus aureus. In words: Antimicrobial activity against Staphylococcus aureus MLS16 MTCC 2940 after 24 hrs by well diffusion method. Type of test: functional. Particulars: MLS16 MTCC 2940, 24 h. On the technique in general: A growth-free zone around the sample is the usual read-out of agar diffusion tests.
The subject of test [4] is Staphylococcus aureus. The experiment in a line: Bactericidal activity against Staphylococcus aureus MTCC 96 after 24 hrs by serial dilution method. Type of test: functional. To be noted: MTCC 96, 24 h.
The test system of test [5] is Raoultella planticola. The experiment in a line: Antimicrobial activity against Klebsiella planticola MTCC 530 after 24 hrs by well diffusion method. Type of test: functional. To be noted: MTCC 530, 24 h.
The subject of test [6] is Escherichia coli. In words: Antimicrobial activity against Escherichia coli MTCC 739 after 24 hrs by well diffusion method. It is filed as functional. To be noted: MTCC 739, 24 h.
In test [7] the test system is Bacillus subtilis. The experiment in a line: Bactericidal activity against Bacillus subtilis MTCC 121 after 24 hrs by serial dilution method. Type of test: functional. To be noted: MTCC 121, 24 h.
In test [8] the test system is Candida albicans. The experiment in a line: Antimicrobial activity against Candida albicans MTCC 3017 after 24 hrs by well diffusion method. It is filed as functional. Particulars: MTCC 3017, 24 h.
The test system of test [9] is Micrococcus luteus. The experiment in a line: Bactericidal activity against Micrococcus luteus MTCC 2470 after 24 hrs by serial dilution method. Type of test: functional. To be noted: MTCC 2470, 24 h.
Test [10] concerns Pseudomonas aeruginosa. The experiment in a line: Antimicrobial activity against Pseudomonas aeruginosa MTCC 2453 after 24 hrs by well diffusion method. It is filed as functional. To be noted: MTCC 2453, 24 h.
The test system of test [11] is Staphylococcus aureus. The experiment in a line: Antimicrobial activity against Staphylococcus aureus MTCC 96 after 24 hrs by well diffusion method. Type of test: functional. Particulars: MTCC 96, 24 h.
Test [12] deals with Staphylococcus aureus. In words: Bactericidal activity against Staphylococcus aureus MLS16 MTCC 2940 after 24 hrs by serial dilution method. Type of test: functional. Particulars: MLS16 MTCC 2940, 24 h.
Test [13] has as its system Micrococcus luteus. In words: Antimicrobial activity against Micrococcus luteus MTCC 2470 after 24 hrs by well diffusion method. Type of test: functional. Particulars: MTCC 2470, 24 h.
Test [14] has as its system Bacillus subtilis. The experiment in a line: Antimicrobial activity against Bacillus subtilis MTCC 121 after 24 hrs by well diffusion method. It is filed as functional. Particulars: MTCC 121, 24 h.
The test system of test [15] is Raoultella planticola. In words: Bactericidal activity against Klebsiella planticola MTCC 530 after 24 hrs by serial dilution method. It is filed as functional. Particulars: MTCC 530, 24 h.
The test system of test [16] is Bacillus subtilis. The experiment in a line: Antibiofilm activity against Bacillus subtilis MTCC 121 after 24 hrs by crystal violet staining based assay. Particulars: MTCC 121, 24 h. Type of test: functional, organism-based.
In test [17] the test system is Micrococcus luteus. In words: Antibiofilm activity against Micrococcus luteus MTCC 2470 after 24 hrs by crystal violet staining based assay. Type of test: functional, organism-based. Particulars: MTCC 2470, 24 h.
The test system of test [18] is Staphylococcus aureus. The experiment in a line: Antibiofilm activity against Staphylococcus aureus MTCC 96 after 24 hrs by crystal violet staining based assay. Type of test: functional, organism-based. Particulars: MTCC 96, 24 h.
The test system of test [19] is Staphylococcus aureus. The experiment in a line: Antibiofilm activity against Staphylococcus aureus MLS16 MTCC 2940 after 24 hrs by crystal violet staining based assay. Type of test: functional, organism-based. To be noted: MLS16 MTCC 2940, 24 h.
Test [20] deals with Raoultella planticola. The experiment in a line: Antibiofilm activity against Klebsiella planticola MTCC 530 after 24 hrs by crystal violet staining based assay. It is filed as functional, organism-based. To be noted: MTCC 530, 24 h.

For the compound `COc1ccc(OC)c(-c2cc(-c3ccc(C(=O)NC4CC4)s3)on2)c1`, the values for the IC50 in test [1] and in [2] were > 30 µM and 7.8 µM, respectively.

Regarding `COc1ccc(OC)c(-c2cc(-c3ccc(C(=O)N4CCOCC4)s3)on2)c1`, the IC50 in test [1] and in [2] was > 30 µM each time.

On to `CCN(CC)C(=O)c1ccc(-c2cc(C3=C(N4CC4)C(=O)C=C(N4CC4)C3=O)no2)s1`, for which the MIC is 7.8 µg/mL (≈ 17.8 µM) in test [3]; 15.6 µg/mL (≈ 35.6 µM) in test [5]; > 125 µg/mL in test [6]; 15.6 µg/mL (≈ 35.6 µM) in [8]; > 125 µg/mL in test [10]; 7.8 µg/mL (≈ 17.8 µM) in test [11]. Also, the results for the MIC in [13] and in [14] were 15.6 µg/mL (≈ 35.6 µM) and 7.8 µg/mL (≈ 17.8 µM), respectively. Besides, the MBC is 15.6 µg/mL (≈ 35.6 µM) in test [4]; 31.2 µg/mL (≈ 71.2 µM) in [7]; 62.5 µg/mL (≈ 143 µM) in test [9]; 31.2 µg/mL (≈ 71.2 µM) in [12]; 62.5 µg/mL (≈ 143 µM) in test [15]. The figures for the IC50 in [1] and in test [2] were 0.9 µM and 0.5 µM, respectively.

Take `CCN(CC)C(=O)c1ccc(-c2cc(-c3cc(OC)ccc3OC)no2)s1`: the IC50 was 11 µM in test [1] and > 30 µM in test [2].

`O=C1C=CC(=O)C(c2cc(-c3ccc(C(=O)N4CCCCC4)s3)on2)=C1`: the IC50 in test [1] and in [2] was > 30 µM in each case.

Take `O=C1C=C(N2CC2)C(=O)C(c2cc(-c3ccc(C(=O)N4CCC(C(F)(F)F)CC4)s3)on2)=C1N1CC1`: the MIC was > 125 µg/mL in test [3]; > 125 µg/mL in test [5]; > 125 µg/mL in [6]; 31.2 µg/mL (≈ 60.2 µM) in test [8]; > 125 µg/mL in test [10]; > 125 µg/mL in test [11]. For the same compound, the MIC in test [13] was 31.2 µg/mL (≈ 60.2 µM); in test [14] it was 3.9 µg/mL (≈ 7.52 µM). The MBC in [4] is > 125 µg/mL; in test [7], 7.8 µg/mL (≈ 15 µM); in test [9], 62.5 µg/mL (≈ 121 µM); in test [12] it was > 125 µg/mL; in [15], > 125 µg/mL. Further, the IC50 is 3.7 µM in [1], 2 µM in test [2], 2.1 µM in [16] and 16.2 µM in test [17].

Take `CCCN(C)C(=O)c1ccc(-c2cc(-c3cc(OC)ccc3OC)no2)s1`: the IC50 in test [1] and in test [2] was > 30 µM in each case.

`O=C1C=CC(=O)C(c2cc(-c3ccc(C(=O)NCC4CC4)s3)on2)=C1`: the IC50 in test [1] and in [2] was > 30 µM each time.

Take `COc1ccc(OC)c(-c2cc(-c3ccc(C(=O)N4CCC(C(F)(F)F)CC4)s3)on2)c1`: the 50% inhibitory concentration (IC50) in [1] and in test [2] was > 30 µM each time.

Regarding `CN(C)C(=O)c1ccc(-c2cc(C3=C(N4CC4)C(=O)C=C(N4CC4)C3=O)no2)s1`, the MIC in test [3] was 15.6 µg/mL (≈ 38 µM); in test [5] it was 7.8 µg/mL (≈ 19 µM); in test [6], > 125 µg/mL; in test [8], 15.6 µg/mL (≈ 38 µM); in test [10], > 125 µg/mL; in test [11], 15.6 µg/mL (≈ 38 µM). Besides, the results for the MIC in test [13] and in test [14] were 62.5 µg/mL (≈ 152 µM) and 3.9 µg/mL (≈ 9.5 µM), respectively. Moreover, the MBC in test [4] came out at 31.2 µg/mL (≈ 76 µM); in test [7], 7.8 µg/mL (≈ 19 µM); in test [9] it was 125 µg/mL (≈ 305 µM); in test [12], 31.2 µg/mL (≈ 76 µM); in [15], 31.2 µg/mL (≈ 76 µM). The IC50 was 1.5 µM in [1]; 9.8 µM in test [18]; 10.1 µM in test [19]; > 30 µM in [2]; 6.1 µM in [20]; 2.2 µM in test [16]. This compound also returned an IC50 in [17] of 38.9 µM.

As for `O=C1C=C(N2CC2)C(=O)C(c2cc(-c3ccc(C(=O)NCC4CC4)s3)on2)=C1N1CC1`, the MIC is > 125 µg/mL in test [3]; > 125 µg/mL in [5]; > 125 µg/mL in test [6]; 15.6 µg/mL (≈ 35.7 µM) in test [8]; > 125 µg/mL in [10]; > 125 µg/mL in test [11]. The results for the minimal inhibitory concentration (MIC) in [13] and in test [14] were > 125 µg/mL and 15.6 µg/mL (≈ 35.7 µM), respectively. The MBC in test [4] was > 125 µg/mL; in [7], 31.2 µg/mL (≈ 71.5 µM); in [9], > 125 µg/mL; in test [12], > 125 µg/mL; in test [15] it was > 125 µg/mL. For the same compound, the IC50 amounted to 2.1 µM in test [1], 3.5 µM in test [2] and 9.8 µM in test [16].

`O=C1C=C(N2CC2)C(=O)C(c2cc(-c3ccc(C(=O)N4CCCC4)s3)on2)=C1N1CC1`: the MIC in [3] was 15.6 µg/mL (≈ 35.7 µM); in [5], 15.6 µg/mL (≈ 35.7 µM); in test [6] it was > 125 µg/mL; in test [8], 31.2 µg/mL (≈ 71.5 µM); in [10] it was > 125 µg/mL; in test [11], 15.6 µg/mL (≈ 35.7 µM). Moreover, the results for the MIC in test [13] and in test [14] were 31.2 µg/mL (≈ 71.5 µM) and 7.8 µg/mL (≈ 17.9 µM), respectively. For the same compound, the minimal bactericidal concentration (MBC) turned out to be 31.2 µg/mL (≈ 71.5 µM) in test [4]; 15.6 µg/mL (≈ 35.7 µM) in [7]; 62.5 µg/mL (≈ 143 µM) in test [9]; 31.2 µg/mL (≈ 71.5 µM) in test [12]; 31.2 µg/mL (≈ 71.5 µM) in [15]. Also, the IC50 in test [1] came out at 1.7 µM; in test [2], 1 µM.

For the compound `COc1ccc(OC)c(-c2cc(-c3ccc(C(=O)N(C)Cc4ccc(F)cc4)s3)on2)c1`, the IC50 in test [1] and in test [2] was > 30 µM each time.

With `COc1ccc(CN(C)C(=O)c2ccc(-c3cc(C4=CC(=O)C=CC4=O)no3)s2)cc1`, the half-inhibitory concentration (IC50) was > 30 µM in test [1] and < 30 µM in [2].

Consider `COc1ccc(CN(C)C(=O)c2ccc(-c3cc(-c4cc(OC)ccc4OC)no3)s2)cc1`, for which the IC50 in [1] and in test [2] was > 30 µM in each case.
